Converted amounts (≈) assume the structure as drawn.
Columns and labels:
Type in all cases: functional
[1] = tested on: Escherichia coli; experiment: Antibacterial activity against Escherichia coli ATCC 35218 after 16 to 20 hrs by broth microdilution method
[2] = tested on: Enterococcus faecalis; experiment: Antibacterial activity against Enterococcus faecalis ATCC 25912 after 16 to 20 hrs by broth microdilution method
[3] = tested on: Staphylococcus aureus; experiment: Antibacterial activity against Staphylococcus aureus […] after 16 to 20 hrs by broth microdilution method
[4] = tested on: Enterobacter cloacae; experiment: Antibacterial activity against Enterobacter cloacae CIP 103475 after 16 to 20 hrs by broth microdilution method
[5] = tested on: Escherichia coli; experiment: Antibacterial activity against Escherichia coli ATCC 25922 after 16 to 20 hrs by broth microdilution method
[6] = tested on: Klebsiella pneumoniae; experiment: Antibacterial activity against Klebsiella pneumoniae CIP 53153 after 16 to 20 hrs by broth microdilution method
[7] = tested on: Proteus vulgaris; experiment: Antibacterial activity against Proteus vulgaris CIP 104989 after 16 to 20 hrs by broth microdilution method
[8] = tested on: Citrobacter freundii; experiment: Antibacterial activity against Citrobacter freundii CIP 5732 after 16 to 20 hrs by broth microdilution method
[9] = tested on: Pseudomonas aeruginosa; experiment: Antibacterial activity against Pseudomonas aeruginosa CIP 82118 after 16 to 20 hrs by broth microdilution method
[10] = tested on: Staphylococcus aureus; experiment: Antibacterial activity against methicillin-resistant Staphylococcus aureus ATCC 43300 after 16 to 20 hrs by broth microdilution method

Structure (SMILES)	MIC [1]	MIC [2]	MIC [3]	MIC [4]	MIC [5]	MIC [6]	MIC [7]	MIC [8]	MIC [9]	MIC [10]
COc1ccc2ccc(O)c(C(c3ccccc3)N3CCC(C)CC3)c2c1 (stereo not given)	> 512 µg/mL	> 512 µg/mL	8 µg/mL (≈ 22.1 µM)	> 512 µg/mL	> 512 µg/mL	> 512 µg/mL	> 512 µg/mL	> 512 µg/mL	> 512 µg/mL	> 512 µg/mL
Oc1ccc2cc(Br)ccc2c1C(c1ccccc1)N1CCCCC1 (stereo not given)	> 512 µg/mL	> 512 µg/mL	> 512 µg/mL	> 512 µg/mL	> 512 µg/mL	> 512 µg/mL	> 512 µg/mL	> 512 µg/mL	> 512 µg/mL	> 512 µg/mL
Oc1ccc2cc(Br)ccc2c1C(c1cccc(Cl)c1)N1CCCCC1 (stereo not given)	> 512 µg/mL	> 512 µg/mL	8 µg/mL (≈ 18.6 µM)	> 512 µg/mL	> 512 µg/mL	> 512 µg/mL	> 512 µg/mL	> 512 µg/mL	> 512 µg/mL	> 512 µg/mL
COc1ccc2ccc(O)c(C(c3ccccc3)N3CCCCC3)c2c1 (stereo not given)	> 512 µg/mL	> 512 µg/mL	> 512 µg/mL	> 512 µg/mL	> 512 µg/mL	> 512 µg/mL	> 512 µg/mL	> 512 µg/mL	> 512 µg/mL	> 512 µg/mL
CC1CCN(C(c2cccc3ccccc23)c2c(O)ccc3ccccc23)CC1 (stereo not given)	> 512 µg/mL	> 512 µg/mL	> 512 µg/mL	> 512 µg/mL	> 512 µg/mL	> 512 µg/mL	> 512 µg/mL	> 512 µg/mL	> 512 µg/mL	> 512 µg/mL
Oc1ccc2ccccc2c1C(c1cccs1)N1CCOCC1 (stereo not given)	> 512 µg/mL	32 µg/mL (≈ 98.3 µM)	32 µg/mL (≈ 98.3 µM)	> 512 µg/mL	> 512 µg/mL	> 512 µg/mL	> 512 µg/mL	> 512 µg/mL	> 512 µg/mL	32 µg/mL (≈ 98.3 µM)
CC1CCN(C(c2cccc3ccccc23)c2c(O)ccc3cc(Br)ccc23)CC1 (stereo not given)	> 512 µg/mL	> 512 µg/mL	> 512 µg/mL	> 512 µg/mL	> 512 µg/mL	> 512 µg/mL	> 512 µg/mL	> 512 µg/mL	> 512 µg/mL	> 512 µg/mL
CC1CCN(C(c2ccccc2)c2c(O)ccc3cc(Br)ccc23)CC1 (stereo not given)	> 512 µg/mL	> 512 µg/mL	> 512 µg/mL	> 512 µg/mL	> 512 µg/mL	> 512 µg/mL	> 512 µg/mL	> 512 µg/mL	> 512 µg/mL	> 512 µg/mL
CN(C)C(c1cccs1)c1c(O)ccc2ccccc12 (stereo not given)	> 512 µg/mL	16 µg/mL (≈ 56.5 µM)	16 µg/mL (≈ 56.5 µM)	> 512 µg/mL	> 512 µg/mL	> 512 µg/mL	128 µg/mL (≈ 452 µM)	> 512 µg/mL	> 512 µg/mL	16 µg/mL (≈ 56.5 µM)
Oc1ccc2ccccc2c1C(c1cccs1)N1CCN(c2ccccc2)CC1 (stereo not given)	> 512 µg/mL	> 512 µg/mL	64 µg/mL (≈ 160 µM)	> 512 µg/mL	> 512 µg/mL	> 512 µg/mL	> 512 µg/mL	> 512 µg/mL	> 512 µg/mL	16 µg/mL (≈ 39.9 µM)
CC1CCN(C(c2ccccc2)c2c(O)ccc3ccccc23)CC1 (stereo not given)	> 512 µg/mL	> 512 µg/mL	> 512 µg/mL	> 512 µg/mL	> 512 µg/mL	> 512 µg/mL	> 512 µg/mL	> 512 µg/mL	> 512 µg/mL	> 512 µg/mL
Oc1ccc2ccccc2c1C(c1ccc(F)cc1)N1CCCCC1 (stereo not given)	> 512 µg/mL	> 512 µg/mL	8 µg/mL (≈ 23.9 µM)	> 512 µg/mL	> 512 µg/mL	> 512 µg/mL	> 512 µg/mL	> 512 µg/mL	> 512 µg/mL	> 512 µg/mL
Oc1ccc2ccccc2c1C(c1ccccc1)N1CCCCC1 (stereo not given)	> 512 µg/mL	> 512 µg/mL	8 µg/mL (≈ 25.2 µM)	> 512 µg/mL	> 512 µg/mL	> 512 µg/mL	> 512 µg/mL	> 512 µg/mL	> 512 µg/mL	> 512 µg/mL
Oc1ccc2cc(Br)ccc2c1C(c1cccc2ccccc12)N1CCCCC1 (stereo not given)	> 512 µg/mL	> 512 µg/mL	> 512 µg/mL	> 512 µg/mL	> 512 µg/mL	> 512 µg/mL	> 512 µg/mL	> 512 µg/mL	> 512 µg/mL	> 512 µg/mL
COc1ccc2ccc(O)c(C(c3cccs3)N3CCC(C)CC3)c2c1 (stereo not given)	> 512 µg/mL	64 µg/mL (≈ 174 µM)	16 µg/mL (≈ 43.5 µM)	> 512 µg/mL	> 512 µg/mL	> 512 µg/mL	> 512 µg/mL	> 512 µg/mL	> 512 µg/mL	16 µg/mL (≈ 43.5 µM)
Cc1cc(C)cc(C(c2c(O)ccc3ccccc23)N2CCCCC2)c1 (stereo not given)	> 512 µg/mL	> 512 µg/mL	4 µg/mL (≈ 11.6 µM)	> 512 µg/mL	> 512 µg/mL	> 512 µg/mL	> 512 µg/mL	> 512 µg/mL	> 512 µg/mL	> 512 µg/mL

Reference: ChEMBL document CHEMBL3792360, “Antibacterial activity of Mannich bases derived from 2-naphthols, aromatic aldehydes and secondary aliphatic amines” (2016)
